Ends that are not written are not given here.
What was measured:
MCMV = MCMV infection in mice, virus titers by standard plaque assay on tissues; format: in vivo, BALB/c and C57BL6 mice
Description: BALB/c (FIG. 1a) and C57BL6 (FIG. 1b) mice were infected with 1×10^5 or 5×10^5 PFU of MCMV, respectively. Virus titers were quantified on MEF cells by standard plaque assay on tissues removed at different times (FIG. 1a) or a week after infection (FIG. 1b) and expressed as log 10(mean±standard errors, SE). Thymosin alpha 1 (200 μg/kg given for 7 or 14 days) and GCV (40 mg/kg given three times a week) were administered beginning the day of the infection. Controls received the scrambled peptide. Results are representative of 4 independent experiments. Bars indicate the standard errors. *P<0.05, viral load between treated and untreated mice.
(§1) BALB/c or C57BL6 mice were infected with 10^5 or 5×10^5 PFU of MCMV, respectively. Virus titers, expressed as log 10, were quantified on MEF cells by standard plaque assay on lung tissues removed 7 days after the infection. Tα1 (200 μg/kg/daily for a week) and/or GCV (40 mg/kg, three times a week) were administered beginning the day of the infection. Cytokine (pg/ml) levels in culture supernatants of spleen cells (7 days) were determined by ELISA assay. Bars indicate the standard errors. *P<0.05, treated vs untreated mice. Results are representative of 3 independent experiments.
Inbred C57BL6 and BALB/c mice were injected intraperitoneally (i.p.) with 1×10^5 (BALB/c) or 5×10^5 (C57BL6) plaque forming units (PFU) of MCMV. Virus titers were quantified on MEF cells by standard plaque assay on tissues removed a day after treatment. Treatments were as follow: Tα1 ([…]) and PTX3 (1 mg/k/ip) (SIGMA-Tau, Pomezia, Rome, Italy) were given daily for 7 consecutive days beginning the day of the infection. Controls received the scrambled peptide. All organs from uninfected animals were negative viruses. Virus titers are expressed as log 10 (mean±standard errors, SE).
Mice. Wild-type (WT) inbred C57BL6 and BALB/c mice, 8 to 12 weeks old, were purchased from Charles River Breeding Laboratories (Calco, Italy). Pairs of homozygous TLR9-(TLR9−/−), TLR4-(TLR4−/−), and MyD88-(MyD88−/−)-deficient mice (on the C57BL6 background), were bred under specific pathogen-free conditions at the breeding facilities of the University of Perugia, Perugia, Italy. Experiments were performed following protocols approved by the institutional animal committee and in accordance with European Economic Community Council Directive as well as institutional animal care and use guidelines.
Virus, infection and treatments. Stocks of Smith strain MCMV salivary gland extracts were prepared from BALB/c mice and titered in a standard plaque assay on BALB/c murine embryonic fibroblast (MEF) cells (J. Gen. Virol. 2002; 83:2983-2993). Mice were injected intraperitoneally (i.p.) with 1×10^5 (C57BL6) plaque forming units (PFU) of MCMV. Virus titers were quantified on MEF cells by standard plaque assay on tissues removed at different times. Treatments were as follows: Thymosin alpha 1 and the scrambled polypeptide (both from SciClone Pharmaceuticals, San Mateo, CA) were supplied as purified (the endotoxin levels were <0.03 pg/ml, by a standard limulus lysate assay) sterile, lyophilized, acetylated polypeptide. The sequences were as follows: Ac-Ser-Asp-Ala-Ala-Val-Asp-Thr-Ser-Ser-Glu -Ile-Thr-Thr-Lys-Asp-Leu-Lys-Glu-Lys-Lys-Glu-Val-Glu-Glu-Ala-Glu-Asn-O (Tα1) SEQ ID NO:1 and Ac-Ala-Lys-Ser-Asp-Val-Lys-Ala-Glu-Thr-Ser-Ser-Glu-Ile-Asp-Thr-Thr-Glu-Leu -Asp-Glu-Lys-Val-Glu-Val-Lys-Ala-Asn-Glu-OH (scrambled peptide) SEQ ID NO:2. The lyophilized powders were reconstituted in sterile water and 200 μg/kg/i.p. were given daily for 7 or 14 consecutive days beginning the day of the infection. Gancyclovir (GCV) (Cymevene; from Recordati, Milan, Italy) was administered at 40 mg/kg/i.p. three times a week, every other day, beginning 6 h after infection. Controls received the scrambled peptide or the diluent alone.
Plaque assay. Plaque assay was determined on cells grown to subconfluence and incubated with serially diluted virus samples for 2 h at 37° C. (10). […]

spleen cells = assay: Cytokine levels in culture supernatants of spleen cells from MCMV-infected mice (ELISA); format: in vivo
Text: Arrow indicates an inducible band. Lane 1, uninfected cells; lane 2, MCMV-infected; lane 3, Thymosin alpha 1 treated; lane 4, MCMV+Thymosin alpha 1 treated. (FIG. 3b) Cytokine production (pg/ml) by DC subsets treated as above. Bars indicate the standard errors. *P<0.05, cytokine production in MCMV-infected DC vs uninfected DC. **P<0.05, Thymosin alpha 1-treated vs untreated DC. (FIG. 3c) Cytokine production in mice during MCMV infection. Cytokine levels (pg/ml) in culture supernatants of spleen cells from mice with MCMV infection and treated for a week with Thymosin alpha 1 or GCV. *P<0.05, treated vs untreated mice. ND, not done.
Viral load (FIG. 4a) and cytokine production (FIG. 4b) in C57BL6, TLR4−/−, TLR9−/− and MyD88−/− mice infected with 5×10^5 PFU of MCMV and treated with 200 μg/kg Tα1 for a week. Virus titers, expressed as log 10, were quantified on MEF cells by standard plaque assay on infected tissues removed a week after infection and treatment. Cytokine (pg/ml) levels in culture supernatants of spleen cells were determined by ELISA assay. Bars indicate the standard errors. *P<0.05, Tα1-treated vs untreated mice. Results are representative of 3 independent experiments.
as §1
Quantification of cytokines by ELISA and ELISPOT assays. The levels of cytokines in the culture supernatants of mitogen-stimulated spleen cells (48 h stimulation with 10 μg/ml ConA) or MCMV-pulsed DC (24 h) were determined by ELISA (R&D Systems and PBL, Biomedical Lab, Milan, Italy). The detection limits (pg/ml) of the assays were <16 for IL-12 p70, <10 for IFN-., <3 for IL-10 and <10 for IFN-a. IFN-.-producing NK cells were enumerated by ELISPOT assay on purified NK (Virus Res. 2003; 98:17-467 25). Results are expressed as the mean number of cytokine-producing cells (±SE) per 10^5 cells, calculated using replicates of serial 2-fold dilutions of cells.

[1] = BALB/c mice with MCMV infection, particularly in the first weeks

Substance: Ac-Ser-Asp-Ala-Ala-Val-Asp-Thr-Ser-Ser-Glu -Ile-Thr-Thr-Lys-Asp-Leu-Lys-Glu-Lys-Lys-Glu-Val-Glu-Glu-Ala-Glu-Asn-O (Ac-SDAAVDTSSEITTKDLKEKKEVEEAEN) [Thymosin alpha 1, acidic peptide present in thymus extract with immunoregulatory properties]
- viral load in different visceral organs (MCMV; 200 μg/kg for 7 days, both susceptible (BALB/c) and resistant (C57BL6) mice): significantly decreased the viral load
- viral load (MCMV; BALB/c mice infected with a higher PFU (data not shown)): significantly decreased the viral load
- viral load in visceral organs (MCMV; Thymosin alpha 1 given for 14 days, compared with 7 days): higher
- viral titers in the lung (MCMV; Tα1 alone, 200 μg/kg/ip daily for 7 days, BALB/c or C57BL6 mice): decreased the viral titers
- viral load in salivary gland and liver (MCMV; resistant (C57BL6) mice, a week after infection): particularly evident
- IL-10 production (spleen cells; BALB/c mice with MCMV infection): dramatically increased
- IFN-. production (spleen cells; [1]): significantly increased
- IFN-a production (spleen cells; [1]): significantly increased
- IL-12p70 production (spleen cells; BALB/c mice with MCMV infection, soon after treatment, declining thereafter): slightly increased
- levels of IFN-α, IL-12p70 and IFN-. in supernatants of splenocytes (spleen cells; C57BL6 and TLR4-/- mice, 200 μg/kg for a week): significantly increased
